Reference: US12162890B2 (Novartis AG, priority 2015, dated 2024)

These molecules were tested against HEK293 cells with stable expression of the GRIN1 gene and tetracycline-inducible expression of the GRIN2B gene (NMDA receptor, NR2B) (Homo sapiens, UniProt Q13224) (assay: Fluo-8 Ca2+ flux assay: reversal of Ro 25-6981-mediated suppression of the Ca2+ response to co-agonist (glutamate/glycine)). Conditions: reversal of the Ro 25-6981 suppression of the Ca2+ response to co-agonist (glutamate/glycine).
HEK293 cells with stable expression of the GRIN1 gene and tetracycline-inducible expression of the GRIN2B gene (NMDA receptor, NR2B), sequence (Q13224 27-1484, other chains not shown): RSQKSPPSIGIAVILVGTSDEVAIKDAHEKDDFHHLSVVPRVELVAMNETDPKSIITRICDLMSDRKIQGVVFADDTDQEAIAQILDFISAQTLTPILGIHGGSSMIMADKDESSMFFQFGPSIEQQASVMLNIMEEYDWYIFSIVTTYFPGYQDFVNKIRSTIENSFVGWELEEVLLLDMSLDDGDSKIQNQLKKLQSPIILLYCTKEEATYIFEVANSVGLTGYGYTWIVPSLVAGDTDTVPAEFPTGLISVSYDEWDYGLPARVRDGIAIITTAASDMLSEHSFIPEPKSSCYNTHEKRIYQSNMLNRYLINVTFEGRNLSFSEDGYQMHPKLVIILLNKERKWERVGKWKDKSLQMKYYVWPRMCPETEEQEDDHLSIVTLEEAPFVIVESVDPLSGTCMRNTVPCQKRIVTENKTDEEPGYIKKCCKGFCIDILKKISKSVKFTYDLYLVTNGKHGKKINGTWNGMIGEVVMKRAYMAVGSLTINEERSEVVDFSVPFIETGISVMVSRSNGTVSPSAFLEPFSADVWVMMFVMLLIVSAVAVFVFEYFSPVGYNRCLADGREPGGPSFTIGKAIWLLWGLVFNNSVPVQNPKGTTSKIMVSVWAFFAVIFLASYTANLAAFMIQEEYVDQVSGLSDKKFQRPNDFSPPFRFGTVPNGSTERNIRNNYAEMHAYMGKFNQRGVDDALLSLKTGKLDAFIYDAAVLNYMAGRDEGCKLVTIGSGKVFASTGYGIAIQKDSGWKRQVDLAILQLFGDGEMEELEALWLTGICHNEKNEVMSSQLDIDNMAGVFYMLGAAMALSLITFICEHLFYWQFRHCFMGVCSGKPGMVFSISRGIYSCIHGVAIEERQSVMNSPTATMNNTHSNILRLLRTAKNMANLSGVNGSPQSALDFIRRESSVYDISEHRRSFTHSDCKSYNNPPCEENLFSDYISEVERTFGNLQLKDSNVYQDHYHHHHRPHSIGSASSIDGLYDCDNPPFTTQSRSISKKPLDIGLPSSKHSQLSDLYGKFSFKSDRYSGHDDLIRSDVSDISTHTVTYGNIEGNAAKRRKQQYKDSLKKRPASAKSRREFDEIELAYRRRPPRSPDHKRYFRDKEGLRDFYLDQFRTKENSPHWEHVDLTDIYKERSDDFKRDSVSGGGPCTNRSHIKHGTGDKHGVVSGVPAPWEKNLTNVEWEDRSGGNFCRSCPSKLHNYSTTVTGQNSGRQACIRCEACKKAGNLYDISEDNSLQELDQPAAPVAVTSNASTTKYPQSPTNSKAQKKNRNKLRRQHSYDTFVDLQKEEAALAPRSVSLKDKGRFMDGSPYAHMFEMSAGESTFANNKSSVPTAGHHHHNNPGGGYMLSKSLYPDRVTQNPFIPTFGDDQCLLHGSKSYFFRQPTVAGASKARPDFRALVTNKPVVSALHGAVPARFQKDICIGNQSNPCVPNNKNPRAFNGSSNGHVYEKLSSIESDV
Assay type: cell-based
Also: test concentration or dose not given here.

Structure (SMILES) | Response Recovered (%)
CC1(N)CN(C(=O)Cn2ccc3scc(-c4ccc(F)c(C(F)(F)F)c4)c3c2=O)C1 [Example 96, 5-(2-(3-amino-3-methylazetidin-1-yl)-2-oxoethyl)-3-(4-fluoro-3-(trifluoromethyl)phenyl)thieno[3,2-c]pyridin-4(5H)-one] | 43
O=C(Cn1ccc2scc(-c3ccc(F)c(Cl)c3)c2c1=O)N1CC2(CCN2)C1 [Example 97, 3-(3-chloro-4-fluorophenyl)-5-(2-oxo-2-(1,6-diazaspiro[3.3]heptan-6-yl)ethyl)thieno[3,2-c]pyridin-4(5H)-one 2,2,2-trifluoroacetate] | 2.8
O=C(Cn1cc(Br)c2scc(-c3ccc(Cl)c(C(F)(F)F)c3)c2c1=O)N1CCCC1 [Example 98, 7-bromo-3-(4-chloro-3-(trifluoromethyl)phenyl)-5-(2-oxo-2-(pyrrolidin-1-yl)ethyl)thieno[3,2-c]pyridin-4(5H)-one] | 40
N#Cc1cn(CC(=O)N2CCCC2)c(=O)c2c(-c3ccc(Cl)c(C(F)(F)F)c3)csc12 [Example 99, 3-(4-chloro-3-(trifluoromethyl)phenyl)-4-oxo-5-(2-oxo-2-(pyrrolidin-1-yl)ethyl)-4,5-dihydrothieno[3,2-c]pyridine-7-carbonitrile] | 37
N#Cc1cn(CC(=O)N2CCCC2)c(=O)c2c(-c3ccc(F)c(C(F)(F)F)c3)csc12 [Example 100, 3-(4-fluoro-3-(trifluoromethyl)phenyl)-4-oxo-5-(2-oxo-2-(pyrrolidin-1-yl)ethyl)-4,5-dihydrothieno[3,2-c]pyridine-7-carbonitrile] | 34
O=C(Cn1cc(C2CC2)c2scc(-c3ccc(Cl)c(C(F)(F)F)c3)c2c1=O)N1CCCC1 [Example 101, 3-(4-chloro-3-(trifluoromethyl)phenyl)-7-cyclopropyl-5-(2-oxo-2-(pyrrolidin-1-yl)ethyl)thieno[3,2-c]pyridin-4(5H)-one] | 29
O=C(Cn1cc(-c2ccccc2)c2scc(-c3ccc(Cl)c(C(F)(F)F)c3)c2c1=O)N1CCCC1 [Example 102, 3-(4-chloro-3-(trifluoromethyl)phenyl)-5-(2-oxo-2-(pyrrolidin-1-yl)ethyl)-7-phenylthieno[3,2-c]pyridin-4(5H)-one] | 23
O=C(Cn1cc(-c2ccncc2)c2scc(-c3ccc(Cl)c(C(F)(F)F)c3)c2c1=O)N1CCCC1 [Example 103, 3-(4-chloro-3-(trifluoromethyl)phenyl)-5-(2-oxo-2-(pyrrolidin-1-yl)ethyl)-7-(pyridin-4-yl)thieno[3,2-c]pyridin-4(5H)-one] | 32
O=C(Cn1cc(-c2ccccc2)c2scc(-c3ccc(F)c(C(F)(F)F)c3)c2c1=O)N1CCCC1 [Example 104, 3-(4-fluoro-3-(trifluoromethyl)phenyl)-5-(2-oxo-2-(pyrrolidin-1-yl)ethyl)-7-phenylthieno[3,2-c]pyridin-4(5H)-one] | 22
O=C(Cn1cc(-c2ccncc2)c2scc(-c3ccc(F)c(C(F)(F)F)c3)c2c1=O)N1CCCC1 [Example 105, 3-(4-fluoro-3-(trifluoromethyl)phenyl)-5-(2-oxo-2-(pyrrolidin-1-yl)ethyl)-7-(pyridin-4-yl)thieno[3,2-c]pyridin-4(5H)-one] | 22
Cc1cn(CC(=O)N2CCCC2)c(=O)c2c(-c3ccc(Cl)c(C(F)(F)F)c3)csc12 [Example 106, 3-(4-chloro-3-(trifluoromethyl)phenyl)-7-methyl-5-(2-oxo-2-(pyrrolidin-1-yl)ethyl)thieno[3,2-c]pyridin-4(5H)-one] | 76
Cc1cn(CC(=O)N2CCCC2)c(=O)c2c(-c3ccc(F)c(C(F)(F)F)c3)csc12 [Example 107, 3-[4-fluoro-3-(trifluoromethyl)phenyl]-7-methyl-5-[2-oxo-2-(pyrrolidin-1-yl)ethyl]-4H,5H-thieno[3,2-c]pyridin-4-one] | 63
N=C(NO)c1cn(CC(=O)N2CCCC2)c(=O)c2c(-c3ccc(F)c(C(F)(F)F)c3)csc12 [Example 108, 3-(4-fluoro-3-(trifluoromethyl)phenyl)-N-hydroxy-4-oxo-5-(2-oxo-2-(pyrrolidin-1-yl)ethyl)-4,5-dihydrothieno[3,2-c]pyridine-7-carboximidamide] | 64
O=C(Cn1cc(-c2ncon2)c2scc(-c3ccc(F)c(C(F)(F)F)c3)c2c1=O)N1CCCC1 [Example 109, 3-(4-fluoro-3-(trifluoromethyl)phenyl)-7-(1,2,4-oxadiazol-3-yl)-5-(2-oxo-2-(pyrrolidin-1-yl)ethyl)thieno[3,2-c]pyridin-4(5H)-one] | 14
N=C(NO)c1cn(CC(=O)N2CCC(F)C2)c(=O)c2c(-c3ccc(F)c(C(F)(F)F)c3)csc12 (stereo not shown) [Example 110, 3-(4-fluoro-3-(trifluoromethyl)phenyl)-5-(2-(3-fluoropyrrolidin-1-yl)-2-oxoethyl)-N-hydroxy-4-oxo-4,5-dihydrothieno[3,2-c]pyridine-7-carboximidamide] | 33
O=C(Cn1cc(CO)c2scc(-c3ccc(F)c(C(F)(F)F)c3)c2c1=O)N1CCC(F)C1 (stereo not shown) [Example 111, 3-(4-fluoro-3-(trifluoromethyl)phenyl)-5-(2-(3-fluoropyrrolidin-1-yl)-2-oxoethyl)-7-(hydroxymethyl)thieno[3,2-c]pyridin-4(5H)-one] | 97
O=C(Cn1cc(CN2CCCC2)c2scc(-c3ccc(F)c(C(F)(F)F)c3)c2c1=O)N1CCC(F)C1 (stereo not shown) [Example 112, 3-(4-fluoro-3-(trifluoromethyl)phenyl)-5-(2-(3-fluoropyrrolidin-1-yl)-2-oxoethyl)-7-(pyrrolidin-1-ylmethyl)thieno[3,2-c]pyridin-4(5H)-one] | 89
N=C(N)c1cn(CC(=O)N2CCCC2)c(=O)c2c(-c3ccc(F)c(C(F)(F)F)c3)csc12 [Example 113, 3-(4-fluoro-3-(trifluoromethyl)phenyl)-4-oxo-5-(2-oxo-2-(pyrrolidin-1-yl)ethyl)-4,5-dihydrothieno[3,2-c]pyridine-7-carboximidamide] | 47
O=C(Cn1cc(N2CCCC2)c2scc(-c3ccc(F)c(C(F)(F)F)c3)c2c1=O)N1CCCC1 [Example 114, 3-(4-fluoro-3-(trifluoromethyl)phenyl)-5-(2-oxo-2-(pyrrolidin-1-yl)ethyl)-7-(pyrrolidin-1-yl)thieno[3,2-c]pyridin-4(5H)-one] | 15
O=C(Cn1cc(N2CCC2)c2scc(-c3ccc(F)c(C(F)(F)F)c3)c2c1=O)N1CCC(F)C1 (stereo not shown) [Example 115, 7-(azetidin-1-yl)-3-[4-fluoro-3-(trifluoromethyl)phenyl]-5-[2-(3-fluoropyrrolidin-1-yl)-2-oxoethyl]-4H,5H-thieno[3,2-c]pyridin-4-one] | 8.3
CN(C)Cc1cn(CC(=O)N2CCC(F)C2)c(=O)c2c(-c3ccc(F)c(C(F)(F)F)c3)csc12 (stereo not shown) [Example 116, 7-((dimethylamino)methyl)-3-(4-fluoro-3-(trifluoromethyl)phenyl)-5-(2-(3-fluoropyrrolidin-1-yl)-2-oxoethyl)thieno[3,2-c]pyridin-4(5H)-one] | 70
CCN(CC)Cc1cn(CC(=O)N2CCC(F)C2)c(=O)c2c(-c3ccc(F)c(C(F)(F)F)c3)csc12 (stereo not shown) [Example 117, 7-((diethylamino)methyl)-3-(4-fluoro-3-(trifluoromethyl)phenyl)-5-(2-(3-fluoropyrrolidin-1-yl)-2-oxoethyl)thieno[3,2-c]pyridin-4(5H)-one 2,2,2-trifluoroacetate] | 30
O=C(Cn1cc(CN2CCC2)c2scc(-c3ccc(F)c(C(F)(F)F)c3)c2c1=O)N1CCC(F)C1 (stereo not shown) [Example 118, 7-(azetidin-1-ylmethyl)-3-(4-fluoro-3-(trifluoromethyl)phenyl)-5-(2-(3-fluoropyrrolidin-1-yl)-2-oxoethyl)thieno[3,2-c]pyridin-4(5H)-one] | 77
O=C(Cn1cc(CN2CCCC2)c2scc(-c3ccc(F)c(Cl)c3)c2c1=O)N1CCC(F)C1 (stereo not shown) [Example 119, 3-(3-chloro-4-fluorophenyl)-5-(2-(3-fluoropyrrolidin-1-yl)-2-oxoethyl)-7-(pyrrolidin-1-ylmethyl)thieno[3,2-c]pyridin-4(5H)-one] | 75
CN(C)Cc1cn(CC(=O)N2CCC(F)C2)c(=O)c2c(-c3ccc(F)c(Cl)c3)csc12 (stereo not shown) [Example 120, 3-(3-chloro-4-fluorophenyl)-7-((dimelhylamino)methyl)-5-(2-(3-fluoropyrrolidin-1-yl)-2-oxoethyl)thieno[3,2-c]pyridin-4(5H)-one] | 61
O=C(Cn1cc(CN2CCCC2)c2scc(-c3ccc(Cl)c(Cl)c3)c2c1=O)N1CCC(F)C1 (stereo not shown) [Example 121, 3-(3,4-dichlorophenyl)-5-(2-(3-fluoropyrrolidin-1-yl)-2-oxoethyl)-7-(pyrrolidin-1-ylmethyl)thieno[3,2-c]pyridin-4(5H)-one] | 59
O=C(Cn1cc(CN2CCC2)c2scc(-c3ccc(Cl)c(Cl)c3)c2c1=O)N1CCC(F)C1 (stereo not shown) [Example 122, 7-(azetidin-1-ylmethyl)-3-(3,4-dichlorophenyl)-5-(2-(3-fluoropyrrolidin-1-yl)-2-oxoethyl)thieno[3,2-c]pyridin-4(5H)-one] | 27
CN(C)Cc1cn(CC(=O)N2CCC(F)C2)c(=O)c2c(-c3ccc(Cl)c(Cl)c3)csc12 (stereo not shown) [Example 123, 3-(3,4-dichlorophenyl)-7-((dimethylamino)methyl)-5-(2-(3-fluoropyrrolidin-1-yl)-2-oxoethyl)thieno[3,2-c]pyridin-4(5H)-one] | 70
